Patent publication US20240254119A1 (THIRD HARMONIC BIO, INC., priority 2022, published 2024)

Legend:
wtKIT = biological target: T1, wtKIT (Homo sapiens, UniProt P10721); assay: Caliper biochemical assay, wtKIT; conditions: Table 6, read-out: KIT Biochemical IC50 avg
T1 construct: 1888289AM in the reaction mixtures
Method in brief: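 Mobility-shift read-out: after EDTA stop, fluorescent peptide substrate and product resolved electrophoretically on LabChip 3000. Reaction ran 3 h at 25° C with 400 μM ATP, Mn^2+ cofactor, 5.0 nM wtKIT, 1 μM FAM-peptide, pH 7.5 HEPES buffer; no-enzyme wells defined full inhibition.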

Kinetic solubility assay = type: physicochemical; conditions: kinetic solubility, 50 mM PB (pH 7.4), shaken 24 hours at RT
Method in brief: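 Concentration in the filtrate was determined by UPLC-UV or HPLC-UV with a standard curve. Before that, compound (10 mM DMSO stock) in 50 mM PB at pH 7.4 was agitated 24 h at room temperature, then PTFE-filtered with centrifugation.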

[1] = biological target: T2, BCRP (BCRP-MDCKII monolayer) (Homo sapiens, UniProt Q9UNQ0); assay: MDCKII-BCRP bidirectional transport assay; type: in vitro ADME; conditions: for MDCK-BCRP: Papp A-B: apical to basolateral
T2 construct: host or cells: MDCKII (canine kidney) cells
T2 sequence (Q9UNQ0 1-655): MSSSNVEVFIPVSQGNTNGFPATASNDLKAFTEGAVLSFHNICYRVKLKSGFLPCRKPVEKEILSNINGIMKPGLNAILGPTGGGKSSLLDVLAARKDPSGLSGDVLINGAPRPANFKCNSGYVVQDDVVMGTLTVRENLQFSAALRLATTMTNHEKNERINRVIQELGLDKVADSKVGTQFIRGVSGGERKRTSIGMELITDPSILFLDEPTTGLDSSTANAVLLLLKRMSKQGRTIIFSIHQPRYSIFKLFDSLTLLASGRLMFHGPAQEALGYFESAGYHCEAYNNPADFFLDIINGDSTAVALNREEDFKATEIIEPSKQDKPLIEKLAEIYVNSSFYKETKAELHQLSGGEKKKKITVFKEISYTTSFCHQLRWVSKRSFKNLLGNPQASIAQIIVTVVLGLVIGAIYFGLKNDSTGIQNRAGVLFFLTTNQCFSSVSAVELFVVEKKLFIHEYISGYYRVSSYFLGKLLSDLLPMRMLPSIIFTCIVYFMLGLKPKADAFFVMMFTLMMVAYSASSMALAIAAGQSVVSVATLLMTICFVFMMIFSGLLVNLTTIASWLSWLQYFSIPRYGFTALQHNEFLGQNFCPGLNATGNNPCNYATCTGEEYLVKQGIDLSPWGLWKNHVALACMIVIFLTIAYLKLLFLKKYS
Method in brief: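 Efflux ratios were derived from Papp values, alongside recovery, with compounds quantified by LC-MS/MS. Both directions were tested in duplicate across BCRP-MDCKII monolayers used on days 12–15. Incubation ran 120 min at 37° C, 5% CO2, after a 15 min preincubation in assay buffer.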

CSF-1R = biological target: T3, CSF-1R (Homo sapiens, UniProt P07333); assay: Caliper biochemical assay, CSF-1R; conditions: Table 6
T3 construct: purchased Invitrogen PV3249 (lot 662393N)
T3 sequence (P07333 20-972): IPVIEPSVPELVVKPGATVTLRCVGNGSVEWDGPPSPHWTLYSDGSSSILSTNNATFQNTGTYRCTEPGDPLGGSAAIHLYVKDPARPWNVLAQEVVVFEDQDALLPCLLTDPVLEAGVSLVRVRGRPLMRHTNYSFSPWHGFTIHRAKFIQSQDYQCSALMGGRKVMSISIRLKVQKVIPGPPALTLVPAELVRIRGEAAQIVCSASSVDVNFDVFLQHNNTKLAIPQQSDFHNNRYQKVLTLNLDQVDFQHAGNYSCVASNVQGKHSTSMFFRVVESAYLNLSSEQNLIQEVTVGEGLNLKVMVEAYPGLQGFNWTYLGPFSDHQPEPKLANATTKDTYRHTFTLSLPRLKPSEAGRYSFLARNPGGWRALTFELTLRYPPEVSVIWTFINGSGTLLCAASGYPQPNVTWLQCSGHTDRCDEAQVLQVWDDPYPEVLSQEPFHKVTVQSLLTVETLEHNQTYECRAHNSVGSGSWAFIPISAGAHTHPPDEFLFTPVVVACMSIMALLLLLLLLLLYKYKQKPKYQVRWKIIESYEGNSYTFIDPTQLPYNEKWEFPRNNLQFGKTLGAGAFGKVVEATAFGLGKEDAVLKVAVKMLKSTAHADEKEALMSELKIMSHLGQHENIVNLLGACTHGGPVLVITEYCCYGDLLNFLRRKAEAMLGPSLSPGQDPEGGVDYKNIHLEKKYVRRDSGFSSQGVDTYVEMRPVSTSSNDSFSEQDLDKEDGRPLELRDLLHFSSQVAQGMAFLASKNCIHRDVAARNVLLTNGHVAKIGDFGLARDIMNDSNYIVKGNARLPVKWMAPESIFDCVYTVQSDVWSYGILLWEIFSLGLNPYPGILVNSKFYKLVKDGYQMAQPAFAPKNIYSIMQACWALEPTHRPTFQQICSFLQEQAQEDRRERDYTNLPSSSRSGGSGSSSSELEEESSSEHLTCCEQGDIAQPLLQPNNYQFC
Procedure: (§1) Enzyme, substrate, and cofactors (ATP and Mn^2+) are combined in a well of a microtiter plate and incubated for 3 hours at 25° C. At the end of the incubation, the reaction is quenched by the addition of an EDTA-containing buffer. Substrate and product are separated electrophoretically using the microfluidic-based LabChip 3000 Drug Discovery System from Caliper Life Sciences* and quantitated by fluorescence intensity.
(§2) The substrate used in the CSF-1R and PDGFRα assay is FAM-[…]-CONH2 (FAM is carboxyfluorescein). Peptide should be >95% purity. The substrate for the KIT assay is FAM-[…]-NH2.
(§3) • 1. To a well of a 384-well plate add 5 μL of 2× enzyme buffer (or control) • 2. Add 100 nL of 100× compound. • 3. Add 5 μL of 2× substrate buffer. • 4. Incubate plate at 25° C. for 3 hours. • 5. Add 10 uL of […]. • 6. Read plate LabChip 3000 Drug Discovery System
(§4) • 3 hours at 25° C. where 100% Inhibitor: No enzyme.

PDGFRα = biological target: T4, PDGFRα (Homo sapiens, UniProt P16234); assay: Caliper biochemical assay, PDGFRα; conditions: Table 6
T4 construct: purchased Millipore 14-467 (lot 26321_ACTI)
T4 sequence (P16234 24-1089): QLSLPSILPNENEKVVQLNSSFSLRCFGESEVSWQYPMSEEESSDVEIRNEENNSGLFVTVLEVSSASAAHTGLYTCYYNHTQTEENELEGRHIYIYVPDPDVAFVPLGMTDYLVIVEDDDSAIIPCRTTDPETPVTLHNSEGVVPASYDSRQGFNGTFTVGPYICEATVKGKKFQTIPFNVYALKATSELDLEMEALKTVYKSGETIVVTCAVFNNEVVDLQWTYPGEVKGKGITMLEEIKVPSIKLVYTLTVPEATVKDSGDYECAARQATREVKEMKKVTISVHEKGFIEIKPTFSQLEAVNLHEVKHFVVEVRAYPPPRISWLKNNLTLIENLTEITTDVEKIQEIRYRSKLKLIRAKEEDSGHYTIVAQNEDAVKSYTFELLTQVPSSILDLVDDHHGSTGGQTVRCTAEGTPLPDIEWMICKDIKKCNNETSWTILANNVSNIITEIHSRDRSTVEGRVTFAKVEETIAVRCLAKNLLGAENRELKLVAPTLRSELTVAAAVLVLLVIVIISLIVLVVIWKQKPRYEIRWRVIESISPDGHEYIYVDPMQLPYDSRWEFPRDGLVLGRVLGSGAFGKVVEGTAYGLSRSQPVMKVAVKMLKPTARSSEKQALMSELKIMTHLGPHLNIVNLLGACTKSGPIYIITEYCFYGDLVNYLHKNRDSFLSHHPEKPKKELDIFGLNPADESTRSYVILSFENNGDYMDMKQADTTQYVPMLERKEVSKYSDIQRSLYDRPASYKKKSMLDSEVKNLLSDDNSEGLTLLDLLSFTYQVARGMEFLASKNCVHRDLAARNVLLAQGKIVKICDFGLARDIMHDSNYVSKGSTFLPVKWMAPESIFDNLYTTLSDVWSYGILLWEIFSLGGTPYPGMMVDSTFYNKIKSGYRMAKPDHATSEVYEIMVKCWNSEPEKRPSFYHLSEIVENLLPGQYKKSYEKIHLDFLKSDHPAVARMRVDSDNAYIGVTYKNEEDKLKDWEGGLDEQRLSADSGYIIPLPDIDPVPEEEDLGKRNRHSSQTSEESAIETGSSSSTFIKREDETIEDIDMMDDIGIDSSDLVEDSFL
Procedure: as §1, §2, §3, §4

T1 sequence (P10721 26-976): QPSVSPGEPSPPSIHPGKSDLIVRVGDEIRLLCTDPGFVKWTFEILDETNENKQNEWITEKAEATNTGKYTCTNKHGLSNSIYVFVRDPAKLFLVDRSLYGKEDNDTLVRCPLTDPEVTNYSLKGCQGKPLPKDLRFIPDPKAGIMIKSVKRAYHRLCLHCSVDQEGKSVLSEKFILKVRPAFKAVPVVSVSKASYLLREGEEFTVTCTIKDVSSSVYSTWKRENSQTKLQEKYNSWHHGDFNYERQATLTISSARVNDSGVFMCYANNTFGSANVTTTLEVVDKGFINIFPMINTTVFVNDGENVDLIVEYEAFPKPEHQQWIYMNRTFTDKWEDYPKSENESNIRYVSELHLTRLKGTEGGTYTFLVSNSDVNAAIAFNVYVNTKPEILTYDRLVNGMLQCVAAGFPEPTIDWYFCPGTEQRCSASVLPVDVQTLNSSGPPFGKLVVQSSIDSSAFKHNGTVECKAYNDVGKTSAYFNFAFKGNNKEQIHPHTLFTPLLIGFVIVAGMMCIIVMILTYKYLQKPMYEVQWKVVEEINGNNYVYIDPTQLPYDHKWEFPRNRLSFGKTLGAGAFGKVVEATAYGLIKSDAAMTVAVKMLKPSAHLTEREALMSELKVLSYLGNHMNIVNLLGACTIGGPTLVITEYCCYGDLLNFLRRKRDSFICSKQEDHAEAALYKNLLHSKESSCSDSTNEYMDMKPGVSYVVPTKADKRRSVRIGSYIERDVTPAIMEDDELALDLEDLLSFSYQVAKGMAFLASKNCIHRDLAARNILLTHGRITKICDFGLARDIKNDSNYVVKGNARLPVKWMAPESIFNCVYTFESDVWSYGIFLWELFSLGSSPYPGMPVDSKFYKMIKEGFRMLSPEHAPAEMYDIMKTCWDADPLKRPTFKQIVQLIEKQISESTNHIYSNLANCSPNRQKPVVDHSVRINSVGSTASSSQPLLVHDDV

Row | Compound | IC50 (wtKIT) | Solubility (μM) (Kinetic solubility assay) | MDCK-BCRP: Efflux Ratio [1] | MDCK-BCRP: Papp A-B [1] | IC50 (CSF-1R) | IC50 (PDGFRα)
1 | Cc1ccc(-c2noc([C@H]3C[C@@H]3F)n2)cc1NC(=O)c1cnc2ccc(N3CCCC3)cn12 [Compound I-361] | ≤ 50 nM | **** (a solubility less than or equal to 2 μM) | 0.54 | 1.1 10^−6 cm/s | ≤ 50 nM | 50 to 500 nM
2 | Cc1ccc(-c2noc([C@H]3C[C@@H]3F)n2)cc1NC(=O)c1cnc2cc(N3CCCC3)ccn12 [Compound I-365] | ≤ 50 nM | *** (a solubility greater than 2 μM and less than or equal to 10 μM) | 1.21 | 4.73 10^−6 cm/s | ≤ 50 nM | ≤ 50 nM
3 | Cc1ccc(-c2noc(-c3ccccn3)n2)cc1NC(=O)c1cnc2ccccn12 [Compound I-272] | ≤ 50 nM | **** (a solubility less than or equal to 2 μM) | 3.4 | 6.58 10^−6 cm/s | 50 to 500 nM | 500 to 5000 nM
4 | Cc1ccc(-c2noc([C@H]3C[C@@H]3F)n2)cc1NC(=O)c1cnc2cc(Br)ccn12 [Compound I-383] | ≤ 50 nM | **** (a solubility less than or equal to 2 μM) | 1.74 | 7.55 10^−6 cm/s | ≤ 50 nM | 50 to 500 nM
5 | Cc1ccc(-c2noc(C3(CO)CC(F)(F)C3)n2)cc1NC(=O)c1cnc2ccccn12 [Compound I-320] | ≤ 50 nM | *** (a solubility greater than 2 μM and less than or equal to 10 μM) | 16 | 1.75 10^−6 cm/s | ≤ 50 nM | 50 to 500 nM
6 | Cc1ccc(-c2noc(C3CCC(F)C3)n2)cc1NC(=O)c1cnc2ccccn12 (racemic) [Compound I-318] | ≤ 50 nM | *** (a solubility greater than 2 μM and less than or equal to 10 μM) | 0.93 | 13.9 10^−6 cm/s | ≤ 50 nM | 50 to 500 nM
7 | COC12CC(c3nc(-c4ccc(C)c(NC(=O)c5cnc6ccccn56)c4)no3)(C1)C2 [Compound I-368] | ≤ 50 nM | **** (a solubility less than or equal to 2 μM) | 1.09 | 15 10^−6 cm/s | 50 to 500 nM | 50 to 500 nM
8 | Cc1ccc(-c2noc(C34COC(C)(C3)C4)n2)cc1NC(=O)c1cnc2ccccn12 [Compound I-344] | ≤ 50 nM | *** (a solubility greater than 2 μM and less than or equal to 10 μM) | 1.48 | 11.5 10^−6 cm/s | ≤ 50 nM | 500 to 5000 nM
9 | Cc1ccc(-c2noc(C3CCC(=O)N3C)n2)cc1NC(=O)c1cnc2ccccn12 (racemic) [Compound I-326] | 50 to 500 nM | * (a solubility greater than 50 μM) | 28.3 | 1.07 10^−6 cm/s | 500 to 5000 nM | 5000 to 30000 nM
10 | Cc1ccc(-c2noc(C3CC(Oc4ccccc4)C3)n2)cc1NC(=O)c1cnc2ccccn12 (stereo not drawn) [Compound I-348] | ≤ 50 nM | *** (a solubility greater than 2 μM and less than or equal to 10 μM) | 2.37 | 0.13 10^−6 cm/s | 50 to 500 nM | 500 to 5000 nM
11 | Cc1ccc(-c2noc(C3CC(Oc4ccccc4)C3)n2)cc1NC(=O)c1cnc2ccccn12 (stereo not drawn) [Compound I-347] | ≤ 50 nM | **** (a solubility less than or equal to 2 μM) | 1.28 | 0.17 10^−6 cm/s | 50 to 500 nM | 500 to 5000 nM
12 | Cc1ccc(-c2noc(CC3CCCOC3)n2)cc1NC(=O)c1cnc2ccccn12 (racemic) [Compound I-362] | ≤ 50 nM | *** (a solubility greater than 2 μM and less than or equal to 10 μM) | 1.35 | 8.71 10^−6 cm/s | 50 to 500 nM | 500 to 5000 nM
13 | COC(=O)Cc1nc(-c2ccc(C)c(NC(=O)c3cnc4ccccn34)c2)no1 [Compound I-321] | ≤ 50 nM | **** (a solubility less than or equal to 2 μM) | 3.4 | 4.73 10^−6 cm/s | 50 to 500 nM | 500 to 5000 nM
14 | Cc1ccc(-c2noc(CC(=O)OCc3ccccc3)n2)cc1NC(=O)c1cnc2ccccn12 [Compound I-322] | ≤ 50 nM | **** (a solubility less than or equal to 2 μM) | 2.7 | 1.38 10^−6 cm/s | 50 to 500 nM | 5000 to 30000 nM
15 | Cc1ccc(-c2noc(C34CC(F)(C3)C4)n2)cc1NC(=O)c1cnc2ccccn12 [Compound I-392] | ≤ 50 nM | *** (a solubility greater than 2 μM and less than or equal to 10 μM) | 2.82 | 7.51 10^−6 cm/s | ≤ 50 nM | 500 to 5000 nM
16 | COC(=O)N1CC(c2nc(-c3ccc(C)c(NC(=O)c4cnn5cc(Br)ccc45)c3)no2)C1 [Compound I-312] | ≤ 50 nM | **** (a solubility less than or equal to 2 μM) | 1.42 | 13.3 10^−6 cm/s | ≤ 50 nM | 500 to 5000 nM
17 | CCOC1CC(c2nc(-c3ccc(C)c(NC(=O)c4cnc5ccccn45)c3)no2)C1 (stereo not drawn) [Compound I-309] | ≤ 50 nM | *** (a solubility greater than 2 μM and less than or equal to 10 μM) | 1.07 | 11.3 10^−6 cm/s | 50 to 500 nM | 500 to 5000 nM
